Assay results reported in patent US7879792B2, “Synthetic peptide inhibitors of thrombin and thrombin activation of protease activated receptors 1 and 4” (The Regents of the University of Michigan, priority 2005, dated 2011).
Where a SMILES comes first, the peptide text is derived from it.

What was measured:
[1] = test system: γ-thrombin-induced platelet aggregation; assay: γ-thrombin-induced platelet aggregation in human platelet-rich plasma; type: cell-based; details: for Concentration of Peptide [mM] That Gives 100% Inhibition: 40 nM human gamma thrombin, human platelet-rich plasma
Experimental: Fresh whole blood was collected and mixed with 0.013 M sodium citrate and platelet-rich plasma was prepared according to the method of Meloni et al., J. Biol. Chem. 266, 6786 (1991). Platelet-rich plasma with a normalized platelet count between 2-2.5×10^8 platelets/ml was added to a cuvette of an aggregometer (Chronlog Corp., Havertown, Pa.), standardized using the protocol of Meloni et al., supra. Peptides to be examined were added to the cuvette and the mixture stabilized for a few moments. Once the baseline was stabilized, γ-thrombin (10-70 nM) (Haematologic Technologies, Essex Junction, Vt.) was added to determine the minimal concentration of the agonist necessary to achieve full platelet aggregation. All investigations with peptides were performed using threshold concentrations of γ-thrombin. Aggregation was allowed to proceed for 5 minutes before stopping.
Table III is a tabulation of the library of peptides prepared and their influence on γ-thrombin-induced platelet aggregation in platelet-rich plasma. […] The numbers in the column represent the minimal concentration (mM) of the peptide that blocked 100% γ-thrombin-induced platelet aggregation of platelets in human platelet-rich plasma.
Human platelet samples were stimulated with 40 nM human gamma thrombin in each experiment.

[2] = target: T1, recombinant extracellular domain of human PAR1 (rPAR1EC) (Homo sapiens, UniProt P25116); assay: inhibition of RPPGFK-biotin binding to rPAR1EC; details: 15 μM RPPGFK-biotin
T1 construct: A portion of the extracellular domain of human PAR1 (Ala^26-Ser^99) (rPAR1EC) was expressed in Escherichia coli; KSI fusion protein (cleaved yes); His tag (cleaved yes); made in house; host or cells: E. coli BL21(DE3), pET31b
T1 sequence (P25116 26-99): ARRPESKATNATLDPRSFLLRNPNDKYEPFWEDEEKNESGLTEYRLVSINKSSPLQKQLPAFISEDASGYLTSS

[3] = target: T2, recombinant extracellular domain of human PAR4 (rPAR4EC) (Homo sapiens, UniProt Q96RI0); assay: inhibition of RPPGFK-biotin binding to rPAR4EC; details: 15 μM RPPGFK-biotin
T2 construct: starting with Gly^18, the first amino acid after the signal peptide is removed, and finishing with Arg^78; KSI fusion protein (N, cleaved yes); His-tag (N, cleaved yes); made in house; host or cells: E. coli 'BLD (DE3)' cells, pET31b; cDNA from HEL cell mRNA
T2 sequence (Q96RI0 18-78): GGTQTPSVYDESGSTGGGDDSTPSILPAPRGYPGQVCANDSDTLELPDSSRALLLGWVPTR
Experimental: Investigations were performed to determine if the compounds in the present invention interact with the exodomain of human PAR4. The extracellular fragment of human PAR4 has been expressed in bacteria. Human erythroleukemia (HEL) cells were used as a source for PAR4 mRNA. The level of PAR4 mRNA was substantially higher in HEL cells than washed human platelets. […] These primers give a 204 basepair fragment which codes for a 61 amino acid hPAR4 protein starting with Gly^18, the first amino acid after the signal peptide is removed, and finishing with Arg^78, the last amino acid of the extracellular fragment (Xu et al. Proc. Natl. Acad. Sci. 95, 6642-6646 (1998)). The pET31b-PAR4 vector after cloning was used to transform BLD (DE3) cells to express the recombinant protein. After IPTG stimulation, the recombinant protein was isolated from the bacterial lysate on a nickel affinity column followed by treatment with CNBr to remove the KSI fusion protein and His-tag on its amino terminal end. The isolated recombinant extracellular domain of PAR4 (rPAREC) is about 9 kDa on 16.5% Tris-Tricine SDS-PAGE. The recombinant protein is recognized as being human PAR4 by detection with an antibody prepared from a peptide (S^41[…]^52) (SEQ ID NO:9) from human PAR4EC. Recombinant PAR4EC was linked to microtiter plate cuvette wells. Goat polyclonal antibody to human PAR1, PAR3, or PAR4 was incubated with the coated microtiter plate cuvette wells and antibody binding was detected. Only antibody to PAR4 detected rPAR4EC linked to the microtiter plate wells. […] These studies indicate that peptides of the present invention also physically interact with human PAR4.

RPPGFK-biotin displaced from rPAR4 exodomain ([3]; 1 μM peptide (so in the source))	SMILES	Concentration of Peptide [mM] That Gives 100% Inhibition [1]	RPPGFK-biotin displaced from rPAR1 exodomain ([2]; 1000 μM (1 mM) peptide)	concentration that abolished γ-thrombin-induced platelet aggregation ([1]; 40 nM γ-thrombin)	γ-thrombin-induced platelet aggregation ([1]; 8 μM peptide, 40 nM γ-thrombin)	RPPGFK-biotin displaced from rPAR1 exodomain ([2]; 30 μM peptide)	RPPGFK-biotin displaced from rPAR1 exodomain ([2]; 300 μM peptide)	RPPGFK-biotin displaced from rPAR4 exodomain ([3]; 30 μM peptide)	RPPGFK-biotin displaced from rPAR4 exodomain ([3]; 300 μM peptide)	RPPGFK-biotin displaced from rPAR4 exodomain ([3]; 1000 μM peptide)
50%	N=C(N)NCCC[C@@H](N)C(=O)N1[C@H](C(=O)N2CCC[C@H]2C(=O)NCC(=O)N[C@@H](Cc2ccccc2)C(N)=O)C[C@@H]2CCCC[C@@H]21 [rOicPGF, D-Arg-Oic-Pro-Gly-Phe, reference compound] (HELM PEPTIDE1{[dR].[O=C([C@@H]1C[C@@H]2CCCC[C@@H]2N1[*:1])[*:2]].P.G.F.[am]}$$$$V2.0)	0.142 mM	50%	–	–	–	–	–	–	–
–	Cc1ccc(C[C@H](NC(=O)[C@@H](C)NC(=O)[C@@H]2CCCN2C(=O)[C@@H]2C[C@@H]3CCCC[C@@H]3N2C(=O)[C@H](N)CCCNC(=N)N)C(N)=O)cc1 [rOicPaF(p-Me), D-Arg-Oic-Pro-D-Ala-Phe(p-Me)] (HELM PEPTIDE1{[dR].[O=C([C@@H]1C[C@@H]2CCCC[C@@H]2N1[*:1])[*:2]].P.[dA].[Cc1ccc(C[C@H](N[*:1])C(=O)[*:2])cc1].[am]}$$$$V2.0)	0.016 mM	69%	greater than or equal to 16 μM	returned to normal	23%	52%	19%	49%	63%
